Laboratory results published in patent US20220395472A1 (Dermavant Sciences GmbH, priority 2021, published 2022).

Test system: adults with plaque psoriasis
Experiment: Long-term open-label extension study (PSOARING 3): Physician Global Assessment (PGA), treatment episodes, treatment success, remittive effect
Assay type: in vivo, human
Settings: for Average Duration of Episodes, Mean (SD) / Average Duration of Episodes, Median / Average Duration of Treatment Success, Median / Duration of 1st Episode, Mean (SD) / Duration of 1st Episode, Median / Duration of 1st Success, Mean (SD) / Duration of 1st Success, Median / Duration of 2nd Episode, Mean (SD) / Duration of 2nd Episode, Median / Duration of 2nd Success, Mean (SD) / Duration of 2nd Success, Median / Duration of 3rd Episode, Mean (SD) / Duration of 3rd Episode, Median / Duration of 3rd Success, Mean (SD) / Duration of 3rd Success, Median / Duration of 4th Episode, Mean (SD) / Duration of 4th Episode, Median / Duration of Last Episode, Mean (SD) / Duration of Last Episode, Median / Duration of Last Success, Mean (SD) / Duration of Last Success, Median / Total Duration of Treatment Episodes, Mean (SD) / Total Duration of Treatment Episodes, Median / Total Duration of Treatment Success, Mean (SD) / Total Duration of Treatment Success, Median / Average Duration of Treatment Success (treatment free interval), Mean (SD) / Average Duration of Treatment Success, Mean (SD): ITT; for Average Duration of Treatment Success (treatment free interval), Mean (SD): Overall (n=299)
Method: This extension study consisted of up to 40 weeks of treatment and a 4 week, safety follow up period.
At the completion of the Week 12 visit of the DB, pivotal Phase 3 study, eligibility of the subjects opting to enroll in this extension study was confirmed. Study visits during the treatment period for all subjects occurred every 4 weeks (±3 days). A phone call was performed at Week 2 (Day 15). Unscheduled visits may have occurred, as needed. Subjects who withdrew from this study before Week 40 returned to the study center for an Early Termination visit. The total duration of this extension study participation was 44 weeks. Subjects in this study were treated as follows based on their PGA score from the Week 12 visit in the DB, pivotal Phase 3 study (Study DMVT 505 3001 or Study DMVT 505 3002).
The PGA was used to assess the primary efficacy endpoint in this study. The PGA is a clinical tool for assessing the current state/severity of a subject's psoriasis at a given time point. It is a static, 5 point, morphological assessment of overall disease severity, as determined by the Investigator, using the clinical characteristics of erythema, scaling, and plaque thickness/elevation as guidelines; higher PGA scores represent more severe disease (0=clear, 1=almost clear, 2=mild, 3=moderate, and 4=severe). The BSA affected was not considered in scoring of the PGA. Variations of the PGA are frequently used in clinical studies because it is a simple assessment, similar to those used in clinical practice. The PGA was performed first, prior to the % BSA, PASI, and LTS assessments.
Time to event parameters, such as the time from treatment success to subsequent worsening (PGA≥2) or duration of treatment episode, were summarized by the Kaplan Meier product limit method using OC.

`CC(C)c1c(O)cc(/C=C/c2ccccc2)cc1O` [Tapinarof, 3,5-Dihydroxy-4-isopropyl-trans-stilbene] was tested, and the “PGA 3 - Moderate” value (Baseline, Overall) was 249 (32.8) n (%), the “PGA 4 - Severe” value (Baseline, Overall) was 23 (3.0) n (%) and the “PGA 0 - Clear” value (Baseline, Tapinarof (Pivotal)) was 73 (14.5) n (%). For the same compound, the “PGA 1 - Almost Clear” value (Baseline, Tapinarof (Pivotal)) was 144 (28.5) n (%), the “PGA 2 - Mild” value (Baseline, Tapinarof (Pivotal)) was 188 (37.2) n (%) and the “PGA 3 - Moderate” value (Baseline, Tapinarof (Pivotal)) was 93 (18.4) n (%). The “PGA 4 - Severe” value (Baseline, Tapinarof (Pivotal)) was 7 (1.4) n (%), the “Average Duration of Episodes, Mean (SD)” value (Overall) was 162.7 (96.20) days and the “Average Duration of Episodes, Median” value (Overall) was 168.0 days. The “Average Duration of Treatment Success, Median” value (Overall) was 84.0 days, the “Duration of 1st Episode, Mean (SD)” value (Overall) was 163.1 (97.10) days and the “Duration of 1st Episode, Median” value (Overall) was 169.0 days. For the same compound, the “Duration of 1st Success, Mean (SD)” value (Overall) was 100.0 (78.49) days, the “Duration of 1st Success, Median” value (Overall) was 84.0 days and the “Duration of 2nd Episode, Mean (SD)” value (Overall) was 74.0 (55.35) days. The “Duration of 2nd Episode, Median” value (Overall) was 57.0 days, the “Duration of 2nd Success, Mean (SD)” value (Overall) was 65.4 (60.68) days and the “Duration of 2nd Success, Median” value (Overall) was 41.0 days. For the same compound, the “Duration of 3rd Episode, Mean (SD)” value (Overall) was 50.4 (41.38) days, the “Duration of 3rd Episode, Median” value (Overall) was 32.5 days and the “Duration of 3rd Success, Mean (SD)” value (Overall) was 30.0 (26.46) days. The “Duration of 3rd Success, Median” value (Overall) was 28.0 days, the “Duration of 4th Episode, Mean (SD)” value (Overall) was 1.0 (NE) days and the “Duration of 4th Episode, Median” value (Overall) was 1.0 days. The “Duration of Last Episode, Mean (SD)” value (Overall) was 162.4 (98.51) days, the “Duration of Last Episode, Median” value (Overall) was 169.0 days and the “Duration of Last Success, Mean (SD)” value (Overall) was 95.4 (82.18) days. The “Duration of Last Success, Median” value (Overall) was 64.0 days, the “Total Duration of Treatment Episodes, Mean (SD)” value (Overall) was 177.6 (90.38) days and the “Total Duration of Treatment Episodes, Median” value (Overall) was 197.0 days. The “Total Duration of Treatment Success, Mean (SD)” value (Overall) was 119.3 (81.80) days, the “Total Duration of Treatment Success, Median” value (Overall) was 112.0 days and the “Average Duration of Treatment Success (treatment free interval), Mean (SD)” value was 97.9 (76.60) days. For the same compound, the “Average Duration of Treatment Success (treatment free interval), Mean (SD)” value (listed as tapinarof) was 97.9 days, the “Average Duration of Episodes, Mean (SD)” value (Tapinarof (Pivotal) group) was 157.1 (97.16) days and the “Average Duration of Episodes, Median” value (Tapinarof (Pivotal) group) was 140.5 days. For the same compound, the “Average Duration of Treatment Success, Mean (SD)” value (Tapinarof (Pivotal) group) was 102.4 (77.90) days, the “Average Duration of Treatment Success, Median” value (Tapinarof (Pivotal) group) was 84.0 days and the “Duration of 1st Episode, Mean (SD)” value (Tapinarof (Pivotal) group) was 156.6 (98.77) days. The “Duration of 1st Episode, Median” value (Tapinarof (Pivotal) group) was 147.5 days, the “Duration of 1st Success, Mean (SD)” value (Tapinarof (Pivotal) group) was 103.0 (80.13) days and the “Duration of 1st Success, Median” value (Tapinarof (Pivotal) group) was 84.0 days. The “Duration of 2nd Episode, Mean (SD)” value (Tapinarof (Pivotal) group) was 80.7 (58.54) days, the “Duration of 2nd Episode, Median” value (Tapinarof (Pivotal) group) was 60.5 days and the “Duration of 2nd Success, Mean (SD)” value (Tapinarof (Pivotal) group) was 76.5 (63.07) days. The “Duration of 2nd Success, Median” value (Tapinarof (Pivotal) group) was 56.0 days, the “Duration of 3rd Episode, Mean (SD)” value (Tapinarof (Pivotal) group) was 49.6 (52.51) days and the “Duration of 3rd Episode, Median” value (Tapinarof (Pivotal) group) was 28.0 days. The “Duration of 3rd Success, Mean (SD)” value (Tapinarof (Pivotal) group) was 32.7 (28.40) days, the “Duration of 3rd Success, Median” value (Tapinarof (Pivotal) group) was 28.5 days and the “Duration of Last Episode, Mean (SD)” value (Tapinarof (Pivotal) group) was 157.6 (99.25) days. For the same compound, the “Duration of Last Episode, Median” value (Tapinarof (Pivotal) group) was 168.0 days, the “Duration of Last Success, Mean (SD)” value (Tapinarof (Pivotal) group) was 101.5 (83.51) days and the “Duration of Last Success, Median” value (Tapinarof (Pivotal) group) was 82.5 days. The “Total Duration of Treatment Episodes, Mean (SD)” value (Tapinarof (Pivotal) group) was 173.2 (92.39) days, the “Total Duration of Treatment Episodes, Median” value (Tapinarof (Pivotal) group) was 196.0 days and the “Total Duration of Treatment Success, Mean (SD)” value (Tapinarof (Pivotal) group) was 125.4 (83.22) days. The “Total Duration of Treatment Success, Median” value (Tapinarof (Pivotal) group) was 116.5 days, the “Average Duration of Episodes, Mean (SD)” value (Vehicle (Pivotal) group) was 173.4 (93.60) days and the “Average Duration of Episodes, Median” value (Vehicle (Pivotal) group) was 195.0 days. The “Average Duration of Treatment Success, Mean (SD)” value (Vehicle (Pivotal) group) was 86.8 (72.58) days, the “Average Duration of Treatment Success, Median” value (Vehicle (Pivotal) group) was 64.0 days and the “Duration of 1st Episode, Mean (SD)” value (Vehicle (Pivotal) group) was 175.5 (92.74) days. For the same compound, the “Duration of 1st Episode, Median” value (Vehicle (Pivotal) group) was 196.0 days, the “Duration of 1st Success, Mean (SD)” value (Vehicle (Pivotal) group) was 92.8 (74.32) days and the “Duration of 1st Success, Median” value (Vehicle (Pivotal) group) was 85.0 days. The “Duration of 2nd Episode, Mean (SD)” value (Vehicle (Pivotal) group) was 57.8 (43.31) days, the “Duration of 2nd Episode, Median” value (Vehicle (Pivotal) group) was 38.0 days and the “Duration of 2nd Success, Mean (SD)” value (Vehicle (Pivotal) group) was 39.1 (45.75) days. For the same compound, the “Duration of 2nd Success, Median” value (Vehicle (Pivotal) group) was 28.0 days, the “Duration of 3rd Episode, Mean (SD)” value (Vehicle (Pivotal) group) was 51.6 (24.51) days and the “Duration of 3rd Episode, Median” value (Vehicle (Pivotal) group) was 56.0 days. The “Duration of 3rd Success, Mean (SD)” value (Vehicle (Pivotal) group) was 19.3 (15.89) days, the “Duration of 3rd Success, Median” value (Vehicle (Pivotal) group) was 28.0 days and the “Duration of 4th Episode, Mean (SD)” value (Vehicle (Pivotal) group) was 1.0 (NE) days. The “Duration of 4th Episode, Median” value (Vehicle (Pivotal) group) was 1.0 days, the “Duration of Last Episode, Mean (SD)” value (Vehicle (Pivotal) group) was 171.4 (96.61) days and the “Duration of Last Episode, Median” value (Vehicle (Pivotal) group) was 195.0 days. For the same compound, the “Duration of Last Success, Mean (SD)” value (Vehicle (Pivotal) group) was 80.5 (77.32) days, the “Duration of Last Success, Median” value (Vehicle (Pivotal) group) was 56.0 days and the “Total Duration of Treatment Episodes, Mean (SD)” value (Vehicle (Pivotal) group) was 185.9 (85.95) days. The “Total Duration of Treatment Episodes, Median” value (Vehicle (Pivotal) group) was 197.0 days and the “Total Duration of Treatment Success, Mean (SD)” value (Vehicle (Pivotal) group) was 104.3 (76.62) days.
